Where “and” joins values, the source holds several entries; their conditions need not be identical. Equal values may be shown once.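 Results reflect a 48-hour exposure of cells in 96-well plates to compound at five concentrations. The concentration for 50% growth inhibition is given as GI50. Definition used: TGI = concentration required for complete inhibition of growth.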
Key:
Experiment in all cases: DTP human tumour cell line panel, 48 h
[1] = tested on: MDA-MB-231 breast
[2] = tested on: UACC-62 melanoma
[3] = tested on: MDA-MB-435
[4] = tested on: IGROV1 ovarian
[5] = tested on: HOP-62 NSCLC
[6] = tested on: HL-60(TB) leukemia
[7] = tested on: HT29 colon
[8] = tested on: K-562 leukemia
[9] = tested on: ACHN renal
[10] = tested on: UO-31 renal

O=Cc1ccc(-c2ccc(-c3nc4ccccc4o3)cc2)o1
GI50 [1]: 21 µM
TGI [1]: 61.6 µM
GI50 [2]: 21.7 µM
TGI [2]: 63.3 µM
GI50 [3]: 33.1 µM
TGI [3]: > 100 µM
GI50 [4]: 38.6 µM
TGI [4]: > 100 µM
GI50 [5]: 49.2 µM
TGI [5]: > 100 µM
GI50 [6]: > 100 µM
TGI [6]: > 100 µM
GI50 [7]: 53.2 µM
TGI [7]: > 100 µM
GI50 [8]: 23.6 µM
TGI [8]: > 100 µM
GI50 [9]: 21.1 µM
TGI [9]: 58.2 µM
GI50 [10]: 22.7 µM
TGI [10]: 68.5 µM

COc1ccccc1CNCCCN1C(=O)c2ccc3c4c(ccc(c24)C1=O)C(=O)N(CCCCNCCCN)C3=O
GI50 [1]: 2.64 µM
TGI [1]: 13.2 µM
GI50 [2]: 1.01 µM
TGI [2]: 2.68 µM
GI50 [3]: 0.574 µM
TGI [3]: 1.16 µM
GI50 [4]: 1.43 µM
TGI [4]: 3.86 µM
GI50 [5]: 2.93 µM
TGI [5]: 10.4 µM
GI50 [6]: 0.867 µM
TGI [6]: 2.7 µM
GI50 [7]: 0.95 µM
TGI [7]: 3.37 µM
GI50 [8]: 1.9 µM
TGI [8]: 4.87 µM
GI50 [9]: 3.68 µM
TGI [9]: 17.3 µM
GI50 [10]: 3.5 µM
TGI [10]: 14.4 µM

NC(=O)c1cccc(Nc2nccc(Nc3cccc4[nH]ncc34)n2)c1
GI50 [1]: 8.02 µM
TGI [1]: > 25 µM
GI50 [2]: 7.02 µM
TGI [2]: > 25 µM
GI50 [3]: 8.58 µM
TGI [3]: > 25 µM
GI50 [4]: 10.5 µM
TGI [4]: > 25 µM
GI50 [5]: 9.28 µM
TGI [5]: > 25 µM
GI50 [6]: 10.5 µM
TGI [6]: > 25 µM
GI50 [7]: 9.68 µM
TGI [7]: > 25 µM
GI50 [8]: 4.53 µM
TGI [8]: > 25 µM
GI50 [9]: 10.9 µM
TGI [9]: > 25 µM
GI50 [10]: 12.4 µM
TGI [10]: > 25 µM

Cc1cccc(C)c1NC(=O)Nc1ccc(S(N)(=O)=O)cc1
TGI [1]: > 100 µM
TGI [2]: > 100 µM
TGI [3]: > 100 µM
TGI [4]: > 100 µM
TGI [5]: > 100 µM
TGI [6]: > 100 µM
TGI [7]: > 100 µM
TGI [8]: > 100 µM
TGI [9]: > 100 µM
TGI [10]: > 100 µM

COc1ccc(-c2c3c(n(C4OC(COC(C)=O)C(OC(C)=O)C(OC(C)=O)C4OC(C)=O)c(=S)c2C#N)CC(C)(C)CC3=O)cc1 (stereo not drawn)
TGI [1]: > 100 µM
TGI [2]: > 100 µM
GI50 [3]: 22.5 µM and 71.7 µM
TGI [3]: 65.6 µM and > 100 µM
TGI [4]: > 100 µM
TGI [5]: > 100 µM
GI50 [6]: 18.4 µM and 47.6 µM
TGI [6]: 42.5 µM and > 100 µM
TGI [7]: > 100 µM
GI50 [8]: 18.2 µM and 47.5 µM
TGI [8]: 39.9 µM and > 100 µM
GI50 [9]: 46.2 µM and > 100 µM
TGI [9]: > 100 µM
TGI [10]: > 100 µM

COc1nc(N)nc2c1ncn2C1OC(CO)C(O)C1O (stereo not drawn)
GI50 [1]: > 5000 µM
TGI [1]: > 5000 µM
GI50 [2]: > 5000 µM
TGI [2]: > 5000 µM
GI50 [3]: > 5000 µM
TGI [3]: > 5000 µM
TGI [4]: > 5000 µM
GI50 [5]: 2010 µM
TGI [5]: > 5000 µM
GI50 [6]: 1190 µM
TGI [6]: > 5000 µM
GI50 [7]: > 5000 µM
TGI [7]: > 5000 µM
GI50 [8]: > 5000 µM
TGI [8]: > 5000 µM
GI50 [9]: 723 µM
TGI [9]: > 5000 µM
GI50 [10]: > 5000 µM
TGI [10]: > 5000 µM

CC(C)(C)CC(C)(C)NCc1cc(C(C)(C)C)cc(CNC(C)(C)CC(C)(C)C)c1O
GI50 [1]: 1.21 µM
TGI [1]: 3.78 µM
GI50 [2]: 3.34 µM
TGI [2]: 12.3 µM
GI50 [3]: 2.56 µM
TGI [3]: 10.9 µM
GI50 [4]: 3.93 µM
TGI [4]: 15.9 µM
GI50 [5]: 4.69 µM
TGI [5]: 17.9 µM
GI50 [6]: 2.51 µM
TGI [6]: 8.04 µM
GI50 [7]: 2.4 µM
TGI [7]: 9.7 µM
GI50 [8]: 2.2 µM
TGI [8]: 9.45 µM
GI50 [9]: 2.81 µM
TGI [9]: 10.8 µM
GI50 [10]: 1.92 µM
TGI [10]: 9.91 µM

CN1C(=O)N[C@H]2[C@@H]3NC(=O)c4ccc(Br)n4[C@@H]3C[C@]21O
GI50 [1]: 0.165 µM
TGI [1]: 2.69 µM
GI50 [2]: 0.0861 µM
TGI [2]: 1.18 µM
GI50 [3]: 0.156 µM
TGI [3]: 1.72 µM
GI50 [4]: 0.0617 µM
TGI [4]: 1.6 µM
GI50 [5]: 0.117 µM
TGI [5]: 1.09 µM
GI50 [6]: 0.0324 µM
TGI [6]: 0.132 µM
GI50 [7]: 0.0956 µM
TGI [7]: 2.29 µM
GI50 [8]: 0.0827 µM
TGI [8]: 1.43 µM
GI50 [9]: 0.187 µM
TGI [9]: 2.93 µM
GI50 [10]: 1.81 µM
TGI [10]: 6.75 µM

Reference: PubChem BioAssay (NCI)
